Laboratory results: ChEMBL document CHEMBL5303573, “Mapping human microbiome drug metabolism by gut bacteria and their genes” (Nature, 2019)

Experiments:
[1] = enterocloster bolteae, 12 h, 2 µM
Description: The drug is tested on Clostridium bolteae strain: ATCCBAA-613 for biotransformation. The drug concentrations were measured before and after a 12-h incubation by liquid-chromatography-coupled mass spectrometry (LC–MS)

[2] = The drug is tested on Bacteroides pectinophilus strain: ATCC43243 for biotransformation. The drug concentrations were measured before and after a 12-h incubation by liquid-chromatography-coupled mass spectrometry (LC–MS); details: 2 µM
[3] = The drug is tested on Clostridium symbiosum strain: ATCC14940 for biotransformation. The drug concentrations were measured before and after a 12-h incubation by liquid-chromatography-coupled mass spectrometry (LC–MS); details: 2 µM
[4] = The drug is tested on Escherichia coli strain: BW25113 for biotransformation. The drug concentrations were measured before and after a 12-h incubation by liquid-chromatography-coupled mass spectrometry (LC–MS); details: 2 µM
[5] = parabacteroides johnsonii, 12 h, 2 µM
Description: The drug is tested on Parabacteroides johnsonii strain: DSM18315 for biotransformation. The drug concentrations were measured before and after a 12-h incubation by liquid-chromatography-coupled mass spectrometry (LC–MS)

[6] = The drug is tested on Ruminococcus torques strain: ATCC27756 for biotransformation. The drug concentrations were measured before and after a 12-h incubation by liquid-chromatography-coupled mass spectrometry (LC–MS); assay type: ADME; set-up: dose 2 uM, timepoint 0 vs 12 hours; details: 2 µM
[7] = bifidobacterium adolescentis, 12 h, 2 µM
Description: The drug is tested on Bifidobacterium adolescentis strain: ATCC 15703 for biotransformation. The drug concentrations were measured before and after a 12-h incubation by liquid-chromatography-coupled mass spectrometry (LC–MS)

[8] = The drug is tested on Clostridium scindens strain: ATCC35704 for biotransformation. The drug concentrations were measured before and after a 12-h incubation by liquid-chromatography-coupled mass spectrometry (LC–MS); details: 2 µM
[9] = The drug is tested on Providencia rettgeri strain: DSM1131 for biotransformation. The drug concentrations were measured before and after a 12-h incubation by liquid-chromatography-coupled mass spectrometry (LC–MS); assay type: ADME; set-up: dose 2 uM, timepoint 0 vs 12 hours; details: 2 µM
[10] = parabacteroides distasonis, 12 h, 2 µM
Description: The drug is tested on Parabacteroides distasonis strain: ATCC8503 for biotransformation. The drug concentrations were measured before and after a 12-h incubation by liquid-chromatography-coupled mass spectrometry (LC–MS)

[11] = bacteroides fragilis, 12 h, 2 µM
Description: The drug is tested on Bacteroides fragilis strain: 3397 (T10) for biotransformation. The drug concentrations were measured before and after a 12-h incubation by liquid-chromatography-coupled mass spectrometry (LC–MS)

[12] = The drug is tested on Bifidobacterium longum subsp. Infantis strain: CCUG52486 for biotransformation. The drug concentrations were measured before and after a 12-h incubation by liquid-chromatography-coupled mass spectrometry (LC–MS); details: 2 µM
[13] = The drug is tested on Eubacterium hallii strain: DSM3353 for biotransformation. The drug concentrations were measured before and after a 12-h incubation by liquid-chromatography-coupled mass spectrometry (LC–MS); details: anaerobutyricum hallii, 2 µM
[14] = The drug is tested on Bacteroides sp. WH2 strain: WH2 for biotransformation. The drug concentrations were measured before and after a 12-h incubation by liquid-chromatography-coupled mass spectrometry (LC–MS); details: bacteroides sp. wh2, 12 h, 2 µM
[15] = The drug is tested on Providencia stuartii strain: ATCC25827 for biotransformation. The drug concentrations were measured before and after a 12-h incubation by liquid-chromatography-coupled mass spectrometry (LC–MS); details: 2 µM
[16] = The drug is tested on Enterobacter cancerogenus strain: ATCC35316 for biotransformation. The drug concentrations were measured before and after a 12-h incubation by liquid-chromatography-coupled mass spectrometry (LC–MS); details: 2 µM
[17] = The drug is tested on Clostridium ramosum strain: DSM1402 for biotransformation. The drug concentrations were measured before and after a 12-h incubation by liquid-chromatography-coupled mass spectrometry (LC–MS); details: thomasclavelia ramosa, 2 µM
[18] = bacteroides thetaiotaomicron, 12 h, 2 µM
Description: The drug is tested on Bacteroides thetaiotaomicron strain: VPI-5482 for biotransformation. The drug concentrations were measured before and after a 12-h incubation by liquid-chromatography-coupled mass spectrometry (LC–MS)

[19] = The drug is tested on Blautia hansenii strain: DSM20583 for biotransformation. The drug concentrations were measured before and after a 12-h incubation by liquid-chromatography-coupled mass spectrometry (LC–MS); details: 2 µM
[20] = The drug is tested on Collinsella aerofaciens strain: ATCC25986 for biotransformation. The drug concentrations were measured before and after a 12-h incubation by liquid-chromatography-coupled mass spectrometry (LC–MS); details: 2 µM

Which results are given for `N[C@@H](Cc1ccc(N(CCCl)CCCl)cc1)C(=O)O`?
Bacterial Biotransformation [1]: Compound metabolized; Bacterial Biotransformation [2]: Compound metabolized; Bacterial Biotransformation [3]: Compound metabolized; Bacterial Biotransformation [4]: Compound metabolized; Bacterial Biotransformation [5]: Compound metabolized; Bacterial Biotransformation [6]: Compound metabolized; Bacterial Biotransformation [7]: Compound metabolized; Bacterial Biotransformation [8]: Compound metabolized; Bacterial Biotransformation [9]: Compound metabolized; Bacterial Biotransformation [10]: Compound metabolized; Bacterial Biotransformation [11]: Compound metabolized; Bacterial Biotransformation [12]: Compound metabolized; Bacterial Biotransformation [13]: Compound metabolized; Bacterial Biotransformation [14]: Compound metabolized; Bacterial Biotransformation [15]: Compound metabolized; Bacterial Biotransformation [16]: Compound metabolized; Bacterial Biotransformation [17]: Compound metabolized; Bacterial Biotransformation [18]: Compound metabolized; Bacterial Biotransformation [19]: Compound metabolized; Bacterial Biotransformation [20]: Compound metabolized

For `CN1CCc2cccc3c2[C@H]1Cc1ccc(O)c(O)c1-3` [APOMORPHINE], which “Bacterial Biotransformation” value [1] is on record?
The value was “Compound NOT metabolized”.

And the “Bacterial Biotransformation” value [2]?
The value was “Compound NOT metabolized”.

And the “Bacterial Biotransformation” value [3]?
The value was “Compound NOT metabolized”.

And the “Bacterial Biotransformation” value [4]?
Its value is “Compound NOT metabolized”.

What about the “Bacterial Biotransformation” value [5] of the same molecule?
The value was “Compound NOT metabolized”.

And the “Bacterial Biotransformation” value [6]?
The value was “Compound NOT metabolized”.

And the “Bacterial Biotransformation” value [7]?
Its value is “Compound NOT metabolized”.

And the “Bacterial Biotransformation” value [8]?
The value was “Compound NOT metabolized”.

And the “Bacterial Biotransformation” value [9]?
Its value is “Compound NOT metabolized”.

And the “Bacterial Biotransformation” value [10]?
Its value is “Compound NOT metabolized”.

And the “Bacterial Biotransformation” value [11]?
The value was “Compound NOT metabolized”.

And the “Bacterial Biotransformation” value [12]?
The value was “Compound NOT metabolized”.

And the “Bacterial Biotransformation” value [13]?
Its value is “Compound NOT metabolized”.

And the “Bacterial Biotransformation” value [14]?
Its value is “Compound NOT metabolized”.

What about the “Bacterial Biotransformation” value [15] of the same molecule?
Its value is “Compound NOT metabolized”.

And the “Bacterial Biotransformation” value [16]?
The value was “Compound NOT metabolized”.

What about the “Bacterial Biotransformation” value [17] of the same molecule?
Its value is “Compound NOT metabolized”.

What about the “Bacterial Biotransformation” value [18] of the same molecule?
Its value is “Compound NOT metabolized”.

What about the “Bacterial Biotransformation” value [19] of the same molecule?
Its value is “Compound NOT metabolized”.

What about the “Bacterial Biotransformation” value [20] of the same molecule?
Its value is “Compound NOT metabolized”.

What does the source list for `C[C@@H]1CC[C@H]2[C@@H](C)C(=O)O[C@@H]3O[C@@]4(C)CC[C@@H]1[C@]32OO4` [ARTEMISININ]?
Bacterial Biotransformation [1]: Compound metabolized; Bacterial Biotransformation [2]: Compound metabolized; Bacterial Biotransformation [3]: Compound metabolized; Bacterial Biotransformation [4]: Compound metabolized; Bacterial Biotransformation [5]: Compound metabolized; Bacterial Biotransformation [6]: Compound metabolized; Bacterial Biotransformation [7]: Compound metabolized; Bacterial Biotransformation [8]: Compound metabolized; Bacterial Biotransformation [9]: Compound metabolized; Bacterial Biotransformation [10]: Compound metabolized; Bacterial Biotransformation [11]: Compound metabolized; Bacterial Biotransformation [12]: Compound metabolized; Bacterial Biotransformation [13]: Compound metabolized; Bacterial Biotransformation [14]: Compound metabolized; Bacterial Biotransformation [15]: Compound metabolized; Bacterial Biotransformation [16]: Compound metabolized; Bacterial Biotransformation [17]: Compound metabolized; Bacterial Biotransformation [18]: Compound metabolized; Bacterial Biotransformation [19]: Compound metabolized; Bacterial Biotransformation [20]: Compound metabolized

With `CN(C)C(=O)Oc1cc(OC(=O)N(C)C)cc(C(O)CNC(C)(C)C)c1` (configuration not stated) [BAMBUTEROL] as the molecule, how does the “Bacterial Biotransformation” value [1] read?
Its value is “Compound NOT metabolized”.

What about the “Bacterial Biotransformation” value [2] of the same molecule?
The value was “Compound NOT metabolized”.

What about the “Bacterial Biotransformation” value [3] of the same molecule?
Its value is “Compound NOT metabolized”.

And the “Bacterial Biotransformation” value [4]?
The value was “Compound NOT metabolized”.

What about the “Bacterial Biotransformation” value [5] of the same molecule?
Its value is “Compound NOT metabolized”.

And the “Bacterial Biotransformation” value [6]?
The value was “Compound NOT metabolized”.

And the “Bacterial Biotransformation” value [7]?
The value was “Compound NOT metabolized”.

What about the “Bacterial Biotransformation” value [8] of the same molecule?
The value was “Compound NOT metabolized”.

And the “Bacterial Biotransformation” value [9]?
Its value is “Compound NOT metabolized”.

And the “Bacterial Biotransformation” value [10]?
The value was “Compound NOT metabolized”.

And the “Bacterial Biotransformation” value [11]?
Its value is “Compound NOT metabolized”.

What about the “Bacterial Biotransformation” value [12] of the same molecule?
Its value is “Compound NOT metabolized”.

And the “Bacterial Biotransformation” value [13]?
The value was “Compound NOT metabolized”.

What about the “Bacterial Biotransformation” value [14] of the same molecule?
Its value is “Compound NOT metabolized”.

What about the “Bacterial Biotransformation” value [15] of the same molecule?
Its value is “Compound NOT metabolized”.

And the “Bacterial Biotransformation” value [16]?
Its value is “Compound NOT metabolized”.

And the “Bacterial Biotransformation” value [17]?
Its value is “Compound NOT metabolized”.

And the “Bacterial Biotransformation” value [18]?
The value was “Compound NOT metabolized”.

And the “Bacterial Biotransformation” value [19]?
Its value is “Compound NOT metabolized”.

What about the “Bacterial Biotransformation” value [20] of the same molecule?
Its value is “Compound NOT metabolized”.

What does the source list for `CNCCC(Oc1ccc(C(F)(F)F)cc1)c1ccccc1` (configuration not stated) [FLUOXETINE]?
Bacterial Biotransformation [1]: Compound metabolized; Bacterial Biotransformation [2]: Compound metabolized; Bacterial Biotransformation [4]: Compound metabolized; Bacterial Biotransformation [5]: Compound metabolized; Bacterial Biotransformation [6]: Compound NOT metabolized; Bacterial Biotransformation [7]: Compound metabolized; Bacterial Biotransformation [8]: Compound NOT metabolized; Bacterial Biotransformation [9]: Compound NOT metabolized; Bacterial Biotransformation [10]: Compound metabolized; Bacterial Biotransformation [11]: Compound metabolized; Bacterial Biotransformation [12]: Compound metabolized; Bacterial Biotransformation [13]: Compound metabolized; Bacterial Biotransformation [14]: Compound metabolized; Bacterial Biotransformation [15]: Compound metabolized; Bacterial Biotransformation [16]: Compound metabolized; Bacterial Biotransformation [17]: Compound metabolized; Bacterial Biotransformation [18]: Compound metabolized; Bacterial Biotransformation [19]: Compound metabolized; Bacterial Biotransformation [20]: Compound metabolized

With `CNC(=C[N+](=O)[O-])NCCSCc1csc(CN(C)C)n1` [NIZATIDINE] as the molecule, how does the “Bacterial Biotransformation” value [1] read?
Its value is “Compound metabolized”.

And the “Bacterial Biotransformation” value [2]?
The value was “Compound metabolized”.

And the “Bacterial Biotransformation” value [3]?
Its value is “Compound metabolized”.

What about the “Bacterial Biotransformation” value [4] of the same molecule?
Its value is “Compound NOT metabolized”.

And the “Bacterial Biotransformation” value [5]?
The value was “Compound metabolized”.

What about the “Bacterial Biotransformation” value [6] of the same molecule?
Its value is “Compound metabolized”.

What about the “Bacterial Biotransformation” value [7] of the same molecule?
Its value is “Compound metabolized”.

And the “Bacterial Biotransformation” value [8]?
Its value is “Compound metabolized”.

What about the “Bacterial Biotransformation” value [9] of the same molecule?
Its value is “Compound NOT metabolized”.

And the “Bacterial Biotransformation” value [10]?
The value was “Compound metabolized”.

And the “Bacterial Biotransformation” value [11]?
The value was “Compound NOT metabolized”.

And the “Bacterial Biotransformation” value [12]?
The value was “Compound metabolized”.

And the “Bacterial Biotransformation” value [13]?
The value was “Compound metabolized”.

And the “Bacterial Biotransformation” value [15]?
The value was “Compound metabolized”.

And the “Bacterial Biotransformation” value [16]?
Its value is “Compound metabolized”.

And the “Bacterial Biotransformation” value [17]?
Its value is “Compound metabolized”.

What about the “Bacterial Biotransformation” value [18] of the same molecule?
Its value is “Compound NOT metabolized”.

What about the “Bacterial Biotransformation” value [19] of the same molecule?
Its value is “Compound metabolized”.

What about the “Bacterial Biotransformation” value [20] of the same molecule?
Its value is “Compound metabolized”.

For `CNC(=C[N+](=O)[O-])NCCSCc1ccc(CN(C)C)o1` [RANITIDINE], which “Bacterial Biotransformation” value [1] is on record?
Its value is “Compound NOT metabolized”.

And the “Bacterial Biotransformation” value [2]?
The value was “Compound metabolized”.

And the “Bacterial Biotransformation” value [3]?
The value was “Compound metabolized”.

And the “Bacterial Biotransformation” value [4]?
Its value is “Compound NOT metabolized”.

What about the “Bacterial Biotransformation” value [5] of the same molecule?
Its value is “Compound metabolized”.

And the “Bacterial Biotransformation” value [6]?
Its value is “Compound metabolized”.

What about the “Bacterial Biotransformation” value [7] of the same molecule?
The value was “Compound metabolized”.

And the “Bacterial Biotransformation” value [8]?
Its value is “Compound metabolized”.

And the “Bacterial Biotransformation” value [9]?
Its value is “Compound NOT metabolized”.

And the “Bacterial Biotransformation” value [10]?
The value was “Compound NOT metabolized”.

And the “Bacterial Biotransformation” value [11]?
The value was “Compound NOT metabolized”.

What about the “Bacterial Biotransformation” value [12] of the same molecule?
Its value is “Compound metabolized”.

What about the “Bacterial Biotransformation” value [13] of the same molecule?
Its value is “Compound metabolized”.

What about the “Bacterial Biotransformation” value [15] of the same molecule?
The value was “Compound NOT metabolized”.

And the “Bacterial Biotransformation” value [16]?
Its value is “Compound NOT metabolized”.

And the “Bacterial Biotransformation” value [17]?
Its value is “Compound metabolized”.

What about the “Bacterial Biotransformation” value [18] of the same molecule?
Its value is “Compound NOT metabolized”.

And the “Bacterial Biotransformation” value [19]?
Its value is “Compound metabolized”.

And the “Bacterial Biotransformation” value [20]?
Its value is “Compound metabolized”.
